Target: human PD-L1 (Homo sapiens (Human), UniProt Q9NZQ7)
Test: Enzyme-Linked Immunosorbent Assay (ELISA), PD-1/PD-L1 binding
Settings: PD-1/PD-L1 ELISA, human PD-L1 coated plates, Table 1
Outline: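 Plates coated with […] human PD-L1 overnight at 4° C, blocked, then 1:5 serial compound dilutions added with human PD-1 […] 0.31 μg/mL for 1 h at 37° C. Bound PD-1 detected with streptavidin-HRP and TMB (20 min, 37° C); absorbance read at 450 nm after H2SO4 stop.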

Chain of human PD-L1 (Q9NZQ7 19-239): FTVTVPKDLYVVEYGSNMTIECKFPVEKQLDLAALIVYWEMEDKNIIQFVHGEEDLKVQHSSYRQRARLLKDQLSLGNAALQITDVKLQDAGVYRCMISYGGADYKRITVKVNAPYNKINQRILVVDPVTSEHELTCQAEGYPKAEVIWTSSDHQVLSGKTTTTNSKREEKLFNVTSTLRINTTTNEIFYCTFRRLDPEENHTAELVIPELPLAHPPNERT

Row | SMILES | IC50
1 | COc1cc(-c2cccc(-c3cccc(NC(=O)c4cccn(CC(N)=O)c4=O)c3C)c2C)cc(F)c1CN [Example 1.288] | 10 to 1000 nM
2 | COc1cc(-c2cccc(-c3cccc(NC(=O)c4cccn(C)c4=O)c3C)c2C)cc(F)c1CN[C@@](C)(CO)C(=O)O [Example 1.289] | 10 to 1000 nM
3 | COc1cc(-c2cccc(-c3cccc(NC(=O)c4cccn(C)c4=O)c3C)c2C)cc(F)c1CNCC(=O)O [Example 1.290] | < 10 nM
4 | COc1cc(-c2cccc(-c3cccc(NC(=O)c4cccn(CC(=O)O)c4=O)c3C)c2C)cc(F)c1CN [Example 1.291] | 1000 to 10000 nM
5 | COc1cc(-c2cccc(-c3cccc(NC(=O)c4ccc(OCC(N)=O)cn4)c3C)c2C)cc(F)c1CN [Example 1.296] | < 10 nM
6 | COc1cc(-c2cccc(-c3cccc(NC(=O)c4cccnc4O)c3C)c2C)cc(F)c1CN [Example 1.297] | 10 to 1000 nM
7 | COc1cc(-c2cccc(-c3cccc(NC(=O)c4ncc(C(N)=O)cn4)c3C)c2C)cc(F)c1CN [Example 1.299] | < 10 nM
8 | COc1cc(-c2cccc(-c3cccc(NC(=O)c4cccn(C)c4=O)c3C)c2C)cc(F)c1CNCCO [Example 1.300] | < 10 nM
9 | COc1cc(-c2cccc(-c3cccc(NC(=O)c4cccn(C)c4=O)c3C)c2C)cc(F)c1CN1CC(C(=O)O)C1 [Example 1.301] | < 10 nM
10 | COc1cc(-c2cccc(-c3cccc(NC(=O)c4cc(C(=O)O)[nH]n4)c3C)c2C)cc(F)c1CN [Example 1.304] | 1000 to 10000 nM
11 | COc1cc(-c2cccc(-c3cccc(NC(=O)c4ccc(C(=O)NCC(=O)O)cn4)c3C)c2C)cc(F)c1CN [Example 1.305] | < 10 nM
12 | COc1cc(-c2cccc(-c3cccc(NC(=O)c4ccc(C(=O)N(C)C)cn4)c3C)c2C)cc(F)c1CN [Example 1.306] | < 10 nM
13 | COc1cc(-c2cccc(-c3cccc(NC(=O)c4cnc(CC(N)=O)cn4)c3C)c2C)cc(F)c1CN [Example 1.307] | < 10 nM
14 | COc1cc(-c2cccc(-c3cccc(NC(=O)c4cnc(CC(=O)O)cn4)c3C)c2C)cc(F)c1CN [Example 1.309] | < 10 nM
15 | COc1cc(-c2cccc(-c3cccc(NC(=O)c4ccc(CC(N)=O)cn4)c3C)c2C)cc(F)c1CN [Example 1.310] | < 10 nM
16 | COc1cc(-c2cccc(-c3cccc(NC(=O)c4cccn(C)c4=O)c3C)c2C)cc(F)c1CN [Example 1.311] | < 10 nM
17 | COc1cc(-c2cccc(-c3cccc(NC(=O)C4CN(CC(=O)O)CCO4)c3C)c2C)cc(F)c1CN (centres unmarked) [Example 1.314] | 10 to 1000 nM
18 | COc1cc(-c2cccc(-c3cccc(NC(=O)C4CN(C)CCO4)c3C)c2C)cc(F)c1CN (centres unmarked) [Example 1.315] | 10 to 1000 nM
19 | COc1cc(-c2cccc(-c3cccc(Nc4nccc5cccnc45)c3C)c2C)cc(F)c1CN1CC(C(=O)O)C1 [Example 1.318] | 10 to 1000 nM
20 | COc1cc(-c2cccc(-c3cccc(NC(=O)[C@H]4COCCN4)c3C)c2C)cc(F)c1CN [Example 1.319] | 10 to 1000 nM
21 | COc1cc(-c2cccc(-c3cccc(NC(=O)c4cc(N)ncn4)c3C)c2C)cc(F)c1CN1CC(C(=O)O)C1 [Example 1.320] | < 10 nM
22 | COc1cc(-c2cccc(-c3cccc(NC(=O)c4ccnc(C)n4)c3C)c2C)cc(F)c1CN1CC(C(=O)O)C1 [Example 1.321] | < 10 nM
23 | COc1cc(-c2cccc(-c3cccc(NC(=O)c4cnc(C(=O)O)cn4)c3C)c2C)cc(F)c1CN [Example 1.322] | < 10 nM
24 | COc1cc(-c2cccc(-c3cccc(NC(=O)C4CNCCO4)c3C)c2C)cc(F)c1CN (centres unmarked) [Example 1.323] | 10 to 1000 nM
25 | COc1cc(-c2cccc(-c3cccc(NC(=O)C4CNCCO4)c3C)c2C)cc(F)c1CNCCO (centres unmarked) [Example 1.324] | 10 to 1000 nM

Row | SMILES | IC50
26 | COc1cc(-c2cccc(-c3cccc(NC(=O)c4cnc(CO)cn4)c3C)c2C)cc(F)c1CN1CC(C(=O)O)C1 [Example 1.326] | < 10 nM
27 | COc1cc(-c2cccc(-c3cccc(NC(=O)c4cncc(N)n4)c3C)c2C)cc(F)c1CN1CC(C(=O)O)C1 [Example 1.327] | < 10 nM
28 | COC(=O)Cc1ccc(C(=O)Nc2cccc(-c3cccc(-c4cc(F)c(CN)c(OC)c4)c3C)c2C)nc1 [Example 1.331] | < 10 nM
29 | COc1cc(-c2cccc(-c3cccc(NC(=O)c4cnc(N)cn4)c3C)c2C)cc(F)c1CN1CC(C(=O)O)C1 [Example 1.332] | < 10 nM
30 | COc1cc(-c2cccc(-c3cccc(NC(=O)c4ccc(C(=O)O)cn4)c3C)c2C)cc(F)c1CNCCO [Example 1.333] | 10 to 1000 nM
31 | COC(=O)c1ccc(C(=O)Nc2cccc(-c3cccc(-c4cc(F)c(CNCCO)c(OC)c4)c3C)c2C)nc1 [Example 1.334] | 10 to 1000 nM
32 | COc1cc(-c2cccc(-c3cccc(NC(=O)c4ccc(CC(=O)O)cn4)c3C)c2C)cc(F)c1CN [Example 1.335] | 10 to 1000 nM
33 | COc1cc(-c2cccc(-c3cccc(NC(=O)C4CCCO4)c3C)c2C)cc(F)c1CN[C@@](C)(CO)C(=O)O (some centres unmarked) [Example 1.336] | 1000 to 10000 nM
34 | COc1cc(-c2cccc(-c3cccc(NC(=O)c4ccncn4)c3C)c2C)cc(F)c1CN1CC(O)C1 [Example 1.337] | < 10 nM
35 | COc1cc(-c2cccc(-c3cccc(NC(=O)c4ccncn4)c3C)c2C)cc(F)c1CNCCO [Example 1.338] | < 10 nM
36 | COc1cc(-c2cccc(-c3cccc(NC(=O)c4ccncn4)c3C)c2C)cc(F)c1CNCC(=O)O [Example 1.339] | 10 to 1000 nM
37 | COc1cc(-c2cccc(-c3cccc(NC(=O)c4ccncn4)c3C)c2C)cc(F)c1CN1CC(C)(C(=O)O)C1 [Example 1.340] | < 10 nM
38 | COc1cc(-c2cccc(-c3cccc(NC(=O)C4CCCO4)c3C)c2C)cc(F)c1CN1CC(C(=O)O)C1 (centres unmarked) [Example 1.341] | 10 to 1000 nM
39 | COc1cc(-c2cccc(-c3cccc(NC(=O)c4ccc(CO)cn4)c3C)c2C)cc(F)c1CN1CC(C(=O)O)C1 [Example 1.342] | < 10 nM
40 | COc1cc(-c2cccc(-c3cccc(NC(=O)c4ccccn4)c3C)c2C)cc(F)c1C(C)N (centres unmarked) [Example 1.344] | 10 to 1000 nM
41 | COc1cc(-c2cccc(-c3cccc(NC(=O)c4ccncn4)c3C)c2C)cc(F)c1CNCCCC(=O)O [Example 1.345] | < 10 nM
42 | COc1cc(-c2cccc(-c3cccc(NC(=O)c4nccs4)c3C)c2C)cc(F)c1CN1CC(C(=O)O)C1 [Example 1.346] | 10 to 1000 nM
43 | COc1cc(-c2cccc(-c3cccc(NC(=O)c4ccnc(N)n4)c3C)c2C)cc(F)c1CN1CC(C(=O)O)C1 [Example 1.347] | 10 to 1000 nM
44 | COc1cc(-c2cccc(-c3cccc(NC(=O)c4ccccn4)c3C)c2F)cc(F)c1CN1CC(C(=O)O)C1 [Example 1.348] | 10 to 1000 nM
45 | COc1cc(-c2cccc(-c3cccc(NC(=O)c4ncco4)c3C)c2C)cc(F)c1CN1CC(C(=O)O)C1 [Example 1.349] | 10 to 1000 nM
46 | COc1cc(-c2cccc(-c3cccc(NC(=O)C4CCCCN4)c3C)c2C)cc(F)c1CN1CC(C(=O)O)C1 (centres unmarked) [Example 1.350] | 1000 to 10000 nM
47 | COc1ccc(C(=O)Nc2cccc(-c3cccc(-c4cc(F)c(CN5CC(C(=O)O)C5)c(OC)c4)c3C)c2C)nc1 [Example 1.351] | < 10 nM
48 | COc1cc(-c2cccc(-c3cccc(NC(=O)c4ccc(C(=O)O)cn4)c3C)c2C)cc(F)c1CN [Example 1.352] | 10 to 1000 nM
49 | COC(=O)c1ccc(C(=O)Nc2cccc(-c3cccc(-c4cc(F)c(CN)c(OC)c4)c3C)c2C)nc1 [Example 1.353] | 10 to 1000 nM
50 | COc1cc(-c2cccc(-c3cccc(NC(=O)c4ccccn4)c3C)c2C)cc(F)c1CN1CCC[C@@H](C(=O)O)C1 [Example 1.354] | 10 to 1000 nM

Source: patent US11266643B2, “Triaryl compounds for treatment of PD-L1 diseases” (CHEMOCENTRYX, INC., priority 2019, dated 2022)
